Converted amounts (≈) assume the structure as drawn.
How the values were obtained:
[1] = test system: P. aeruginosa small colony variants in CF sputum samples; test: Antibiotic resistant small colony variants in CF sputum samples plated on cetrimide agar with and without antibiotics; assay type: cell-based, Pseudomonas aeruginosa
Protocol: Five CF sputum samples from the Clinical Microbiology Laboratory at Massachusetts General Hospital were suspended in 5 ml of 10 mM MgSO4. Serial dilutions of the samples were then plated onto cetrimide agar plates with and without antibiotics. The plates were screened for the presence of P. aeruginosa after 24 and 48 hours of incubation at 37° C. The identity of the colonies was later confirmed by probing colony lifts with the exotoxin A gene from P. aeruginosa. To this end, the EcoRI-HindIII fragment of plasmid pRGI containing the exoA gene (Samadpour et al., J. Clin. Microbiol. 26:2319-23, 1988) was gel isolated and labeled using a random priming kit (Boehringer, Mannheim, Indianapolis, Ind.). Colonies were transferred to nylon membranes and hybridizations were performed according to the manufacturer's recommendations (NEN Research Products, Boston, Mass.). Identification of colonies carrying the exoA gene was then performed using a Phosphorimager (Amersham Pharmacia Biotech Inc., Piscataway, N.J.).
The presence of P. aeruginosa antibiotic resistant small colony variants was determined by plating CF sputum samples on cetrimide agar with and without the indicated antibiotics. […]

PA14 RSCV = test: Resistance of PA14 RSCV colonies to antibiotics on plates; assay type: cell-based, Pseudomonas aeruginosa; details: for resistance of PA14 RSCV colonies: 8 individual colonies
Protocol: To induce such phenotypic variants, an overnight culture of P. aeruginosa strain PA14 (UCBPP-PA14) was inoculated onto Luria-Bertani (LB) containing 200 μg/ml of kanamycin, incubated at 37° C. for 48 hours, at which time, antibiotic resistant rough small variants were isolated. Antibiotic resistant colonies arose at a frequency of 10^−6-10^−7. […] In addition to being resistant to kanamycin, (up to 40 times the susceptibility level of the wild-type), 8 individual PA14 RSCV colonies tested were also resistant to amikacin (30 μg/ml), carbenicillin (300 μg/ml), gentamicin (30 μg/ml), tobramycin (10 μg/ml), and tetracycline (150 μg/ml). Consistent with this latter result, antibiotic resistant variants were also obtained at frequencies of about 10^−7 by plating overnight cultures of PA14 on media containing similar concentrations of the antibiotics mentioned above.

[2] = test system: PA14 and PA14 RSCV biofilms; test: Biofilm resistance to tobramycin in flow chambers (viable biomass by CSLM of GFP-tagged cells); assay type: cell-based, Pseudomonas aeruginosa; details: continuous flow of tobramycin 200 μg/ml on established biofilms
Protocol: To determine whether the antibiotic resistant phenotype of PA14 RSCV is associated with altered biofilm formation, PA14 RSCV was cultured under biofilm-forming conditions as follows. For biofilm characterization, PA14 RSCV biofilms were cultivated under continuous culture conditions in flow-chambers with channel dimensions of 12 by 52 by 2 mm. Flow media consisted of M63 supplemented with 0.5% casamino acids and 0.3% glucose. For measurement of biofilm resistance, bacteria were cultivated in flow-chambers with channel dimensions of 1 by 40 by 4 mm (Stovall Inc., Greensboro, N.C.). In this case, flow media consisted of FAB medium (0.1 mM CaCl2, 0.01 mM Fe-EDTA, 0.15 mM NH4SO4, 0.33 mM Na2HPO4, 0.2 mM KH2PO4 and 1 mM MgCl2) supplemented with casamino acids (0.5%) and sodium citrate (10 mM). Flow-cells in both cases were inoculated with 100-fold dilutions of overnight cultures of PA14 and PA14 RSCV carrying the green fluorescent protein (GFP) in plasmid SMC21, a derivative of pSMC2 (Bloemberg et al., Appl. Environ. Microbiol. 63: 4543-4551, 1997). […] The volume (in μm^3) of individual biofilm structures was determined from serial sections using ImageSpace software (Molecular Dynamics, Sunnyvale, Calif.).
Viable biomass was measured by CSLM analysis of GFP-tagged PA14 and PA14 RSCV cells using GFP expression as a viability marker as described previously (FIG. 1E).

wild-type PA14 = test: Minimal inhibitory concentration of kanamycin in liquid culture; assay type: cell-based; details: Pseudomonas aeruginosa; PA14 in M63 liquid medium; read-out: concentration of kanamycin required to inhibit growth (MIC)
Protocol: Phenotypic variation is a common phenomenon in Gram-negative bacteria that often involves environmentally regulated changes in observable phenotypes produced by modifications in surface components. The effect that different environmental stimuli had on the appearance of kanamycin-resistant phenotypic variants was examined. Bacteria were grown in LB broth, or in supplemented LB with appropriate antibiotics at the indicated temperature with aeration. […] Moreover, the frequency of variants increased 200-fold when plates were incubated at 25° C. compared to 37° C. (FIG. 2A). Finally, a dramatic 10^6-fold increase was obtained on minimal M63 salts as compared to LB medium (FIG. 2A). Minimal salt media consisted of M63 supplemented with 0.3% glucose, 1 mM MgSO4, and 0.5% casamino acids. Importantly, there was a correlation between the frequency of appearance of kanamycin resistant variants on plates and minimal inhibitory concentrations (MICs) of kanamycin in liquid culture for the wild-type PA14 using the culture conditions described above (FIG. 2B).

[3] = Sample 5, patient on Amikacin(IV)/Ceftazidime(IV)
[4] = Sample 38, patient on Tobramycin (I)/Levofloxacin
[5] = Sample 41, no antibiotic treatment
[6] = Sample 42, no antibiotic treatment
[7] = Sample 43, no antibiotic treatment

Molecule | Variants resistant to antibiotic (%) [1, 3] [%] | Variants resistant to antibiotic (%) [1, 4] [%] | Variants resistant to antibiotic (%) [1, 5] [%] | Variants resistant to antibiotic (%) [1, 6] [%] | Variants resistant to antibiotic (%) [1, 7] [%] | resistance of PA14 RSCV colonies (PA14 RSCV; gentamicin 30 μg/ml) | resistance of PA14 RSCV colonies (PA14 RSCV; carbenicillin 300 μg/ml) | resistance of PA14 RSCV colonies (PA14 RSCV; amikacin 30 μg/ml) | resistance of PA14 RSCV biofilm to tobramycin treatment versus wild-type PA14 biofilm [2] | resistance of PA14 RSCV colonies (PA14 RSCV; tobramycin 10 μg/ml) | MIC (wild-type PA14) [µg/mL] | resistance to kanamycin relative to the susceptibility level of the wild-type (PA14 RSCV; PA14 RSCV colonies)
gentamicin | 100 | 100 | 10 | 6.6 | 0.5 | resistant | – | – | – | – | – | –
CC1(C)S[C@@H]2[C@H](NC(=O)C(C(=O)O)c3ccccc3)C(=O)N2[C@H]1C(=O)O (some centres unmarked) [carbenicillin] | – | – | – | – | – | – | resistant | – | – | – | – | –
CN(C)[C@@H]1C(O)=C(C(N)=O)C(=O)[C@@]2(O)C(O)=C3C(=O)c4c(O)cccc4[C@@](C)(O)[C@H]3C[C@@H]12 [tetracycline] | 30 | 32 | 0 | 0 | – | – | – | – | – | – | – | –
NCC[C@H](O)C(=O)N[C@@H]1C[C@H](N)[C@@H](O[C@H]2O[C@H](CN)[C@@H](O)[C@H](O)[C@H]2O)[C@H](O)[C@H]1O[C@H]1O[C@H](CO)[C@@H](O)[C@H](N)[C@H]1O [amikacin] | 100 | 100 | 15 | 5 | 0.2 | – | – | resistant | – | – | – | –
NC[C@H]1O[C@H](O[C@H]2[C@H](O)[C@@H](O[C@H]3O[C@H](CO)[C@@H](O)[C@H](N)[C@H]3O)[C@H](N)C[C@@H]2N)[C@H](N)C[C@@H]1O [tobramycin] | 50 | 100 | 0.10 | 0 | 0.5 | – | – | – | more resistant | resistant | – | –
NC[C@H]1O[C@H](O[C@H]2[C@H](O)[C@@H](O[C@H]3O[C@H](CO)[C@@H](O)[C@H](N)[C@H]3O)[C@H](N)C[C@@H]2N)[C@H](O)[C@@H](O)[C@@H]1O [kanamycin] | – | – | – | – | – | – | – | – | – | – | 475 (≈ 980 µM) | up to 40 times

From patent US20050202424A1, “Regulators of biofilm formation and uses thereof” (priority 2001, published 2005)
